# ChEMBL document CHEMBL1152062, “Novel 4,5,6,7-tetrahydrobenzothiazole dopamine agonists display very low stereoselectivity in their interaction with dopamine receptors” (Bioorg Med Chem Lett, 1991)
# Key:
# Rattus norvegicus [1] = assay: Percent inhibition of spontaneous DA neuronal firing in the substantia nigra of anesthetized rats was determined.; assay type: functional
# D(2) dopamine receptor [2] = target: T1, D(2) dopamine receptor (Rattus norvegicus, UniProt P61169); assay: Affinity of the Compound for Dopamine receptor D2 in rat striatal membrane was determined in vitro using Dopamine agonist [3H]N-propylnorapomorphine as ligand; Value ranges from (204-360); assay type: cell membranes, Striatum
# T1 sequence (P61169 whole entry): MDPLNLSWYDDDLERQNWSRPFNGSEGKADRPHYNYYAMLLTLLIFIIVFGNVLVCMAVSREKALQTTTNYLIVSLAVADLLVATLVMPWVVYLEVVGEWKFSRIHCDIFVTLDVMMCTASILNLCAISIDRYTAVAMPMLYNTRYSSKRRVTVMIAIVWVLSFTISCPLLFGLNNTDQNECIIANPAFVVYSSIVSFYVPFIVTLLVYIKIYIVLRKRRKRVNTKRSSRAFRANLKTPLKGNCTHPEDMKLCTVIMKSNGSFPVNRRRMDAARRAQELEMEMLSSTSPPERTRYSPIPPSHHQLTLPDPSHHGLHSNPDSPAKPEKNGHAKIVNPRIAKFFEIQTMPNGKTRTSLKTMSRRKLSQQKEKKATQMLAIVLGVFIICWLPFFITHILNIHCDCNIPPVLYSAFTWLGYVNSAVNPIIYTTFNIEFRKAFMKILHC
# D(1A) dopamine receptor = D(1A) dopamine receptor (Rattus norvegicus, UniProt P18901); assay: Affinity of the Compound for Dopamine D1 receptor in rat striatal membrane was determined in vitro using Dopamine Antagonist [3H]SCH-23390 as ligand.; assay type: cell membranes, Striatum
# Chain of D(1A) dopamine receptor (P18901 whole entry): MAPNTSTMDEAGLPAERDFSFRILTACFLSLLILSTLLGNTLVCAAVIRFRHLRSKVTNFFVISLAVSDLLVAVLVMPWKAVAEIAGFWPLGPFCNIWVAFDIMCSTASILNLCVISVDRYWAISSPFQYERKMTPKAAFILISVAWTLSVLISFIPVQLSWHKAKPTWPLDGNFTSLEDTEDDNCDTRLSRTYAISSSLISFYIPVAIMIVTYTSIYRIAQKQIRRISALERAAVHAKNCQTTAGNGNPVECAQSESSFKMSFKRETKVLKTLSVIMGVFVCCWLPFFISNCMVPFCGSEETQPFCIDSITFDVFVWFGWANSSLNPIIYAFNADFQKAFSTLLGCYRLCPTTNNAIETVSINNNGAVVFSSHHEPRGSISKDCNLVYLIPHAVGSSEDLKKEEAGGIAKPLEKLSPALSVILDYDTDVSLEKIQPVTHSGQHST
# D(2) dopamine receptor [3] = target: T1, D(2) dopamine receptor; assay: Affinity of the Compound for Dopamine receptor D2 in rat striatal membrane was determined in vitro using Dopamine Antagonist [3H]spiperone as ligand; Value ranges from (580-1050); assay type: cell membranes, Striatum
# Rattus norvegicus [4] = assay: Dose required to inhibit the synthesis of DOPA in rat brain was determined intraperitoneally; assay type: functional; settings: ip
# D(2) dopamine receptor [5] = target: T1, D(2) dopamine receptor; assay: Affinity of the Compound for Dopamine receptor D2 in rat striatal membrane was determined in vitro using Dopamine agonist [3H]N-propylnorapomorphine as ligand; Value ranges from (70-150); assay type: cell membranes, Striatum
# D(2) dopamine receptor [6] = target: T1, D(2) dopamine receptor; assay: Affinity of the Compound for Dopamine receptor D2 in rat striatal membrane was determined in vitro using Dopamine Antagonist [3H]spiperone as ligand; Value ranges from (270-500); assay type: cell membranes, Striatum
# Rattus norvegicus [7] = assay: Percent reversal of the increase in rat striatum DOPA accumulation produced by pretreatment with GBL (750 mg/kg ip) and NSD 1015 (100 mg/kg) when 2 mg/kg was administered.; assay type: functional
# D(2) dopamine receptor [8] = target: T1, D(2) dopamine receptor; assay: Affinity of the Compound for Dopamine receptor D2 in rat striatal membrane was determined in vitro using Dopamine Antagonist [3H]spiperone as ligand; Value ranges from (124-550); assay type: cell membranes, Striatum
# D(2) dopamine receptor [9] = target: T1, D(2) dopamine receptor; assay: Affinity of the Compound for Dopamine receptor D2 in rat striatal membrane was determined in vitro using Dopamine agonist [3H]N-propylnorapomorphine as ligand; Value ranges from (80-119); assay type: cell membranes, Striatum
IC50 (D(2) dopamine receptor [2]) [nM],IC50 (D(1A) dopamine receptor) [µM],IC50 (D(2) dopamine receptor [3]) [nM],IC50 (D(2) dopamine receptor [5]) [nM],IC50 (D(2) dopamine receptor [6]) [nM],IC50 (D(2) dopamine receptor [8]) [nM],IC50 (D(2) dopamine receptor [9]) [nM],Compound,Inhibition (Rattus norvegicus [1]) [%],ED50 (Rattus norvegicus [4]) [mg/kg],Reversal (Rattus norvegicus [7]) [%]
280,> 15,800,,,,,Nc1nc2c(s1)C[C@@H](N1CCN(c3ccccn3)CC1)CC2,100,4.8,
,> 15,,105,440,,,Nc1nc2c(s1)C[C@H](N1CCN(c3ccccn3)CC1)CC2,85,7,
,,,,,,,CN1CCc2cccc3c2[C@H]1Cc1ccc(O)c(O)c1-3 [APOMORPHINE],100,,100
,> 15,,,,320,100,Nc1nc2c(s1)CC(N1CCN(c3ccccn3)CC1)CC2 (racemic),97,4.4,
